In publication PMC9237960, “Identification of a New Antifungal Peptide W1 From a Marine Bacillus amyloliquefaciens Reveals Its Potential in Controlling Fungal Plant Diseases” (Frontiers in Microbiology, 2022):
Converted amounts (≈) assume the structure as drawn. Peptide text beside a SMILES is read from it.

System: F. oxysporum
Type: cell-based, Fusarium oxysporum
Conditions: pH 9.73
Protocol: The minimum inhibitory concentration (MIC) of W1 against F. oxysporum and S. sclerotiorum was determined using the paper disk diffusion method ([Wen et al., 2014]; [Rao et al., 2015]). In brief, the purified W1 was diluted into 20 mM piperazine buffer (pH 9.73) with final concentrations of 0.464, 0.232, 0.116, 0.058, and 0.029 μg/μl, respectively. On paper disks placed 2 cm from the hyphal margin of fungus on a PDA plate, 60 μl of serially diluted samples were added. Later, the plate was incubated at 30°C for 24–48 h. The MIC was determined as the lowest concentration of W1 that could inhibit visible mold growth and was calculated as the total peptide concentration added to each paper disk (microgram per disk). The piperazine buffer (20 mM) was used as the blank control. All assays were repeated three times independently.

MIC against F. oxysporum: 58 µg/mL (≈ 24 µM)
SMILES: CC[C@H](C)[C@H](NC(=O)[C@H](CC(C)C)NC(=O)[C@H](CC(C)C)NC(=O)[C@H](Cc1ccccc1)NC(=O)[C@H](Cc1ccc(O)cc1)NC(=O)[C@H](CC(C)C)NC(=O)[C@@H](NC(=O)[C@H](C)NC(=O)[C@H](Cc1ccccc1)NC(=O)[C@H](CCSC)NC(=O)[C@H](CC(C)C)NC(=O)[C@@H](NC(=O)[C@@H](NC(=O)[C@@H]1CCCN1C(=O)[C@@H](NC(=O)[C@@H](NC(=O)[C@@H](NC(=O)CN)[C@@H](C)O)[C@@H](C)CC)C(C)C)[C@@H](C)CC)[C@@H](C)CC)C(C)C)C(=O)N[C@@H](CCCNC(=N)N)C(=O)N1CCC[C@H]1C(=O)N[C@@H](CCC(N)=O)C(=O)O [W1] (H-GTIVPIILMFAVLYFLLIRPQ-OH)
